Assay: xn = mol fraction of the nth substance listed
Details: 101 kPa, Liquid; for viscosity: Capillary tube (Ostwald / Ubbelohde) method; for speed of sound: Frequency=2 MHz, Linear variable-path acoustic interferometer; for mass density: Pycnometric method

CCCCCC(C)O (stereo not given) [2-heptanol] + Cc1ccccc1
Details | mass density, 298.15 K [kg/m3] | mass density, 308.15 K [kg/m3] | speed of sound, 298.15 K [m/s] | speed of sound, 308.15 K [m/s] | viscosity, 298.15 K [mPa·s] | viscosity, 308.15 K [mPa·s]
x2 = 0 | 813.74 | 804.88 | 1314 | 1274 | 5.088 | 3.683
x2 = 0.0514 | 815.49 | 806.49 | 1309 | 1267 | 4.335 | 3.171
x2 = 0.1014 | 817.27 | 808.2 | 1303 | 1261 | 3.878 | 2.776
x2 = 0.1469 | 818.88 | 809.75 | 1298 | 1256 | 3.392 | 2.459
x2 = 0.2008 | 820.83 | 811.62 | 1293 | 1251 | 2.918 | 2.155
x2 = 0.2519 | 822.7 | 813.37 | 1288 | 1246 | 2.526 | 1.875
x2 = 0.3007 | 824.54 | 815.12 | 1283 | 1243 | 2.195 | 1.665
x2 = 0.348 | 826.33 | 816.85 | 1279 | 1238 | 1.9 | 1.485
x2 = 0.4006 | 828.45 | 818.86 | 1276 | 1235 | 1.622 | 1.332
x2 = 0.4526 | 830.61 | 820.97 | 1272 | 1232 | 1.396 | 1.199
x2 = 0.5002 | 832.62 | 822.92 | 1271 | 1230 | 1.24 | 1.078
x2 = 0.5501 | 834.9 | 825.13 | 1269 | 1229 | 1.064 | 0.992
x2 = 0.6011 | 837.36 | 827.5 | 1268 | 1228 | 0.931 | 0.904
x2 = 0.6574 | 840.16 | 830.22 | 1268 | 1229 | 0.853 | 0.818
x2 = 0.7011 | 842.5 | 832.53 | 1269 | 1230 | 0.778 | 0.756
x2 = 0.756 | 845.59 | 835.62 | 1273 | 1234 | 0.741 | 0.679
x2 = 0.8 | 848.22 | 838.25 | 1276 | 1238 | 0.691 | 0.641
x2 = 0.854 | 851.69 | 841.71 | 1283 | 1243 | 0.65 | 0.57
x2 = 0.9009 | 854.88 | 844.95 | 1289 | 1250 | 0.611 | 0.518
x2 = 0.9475 | 858.12 | 848.5 | 1296 | 1258 | 0.589 | 0.501
